Entries after “also recorded” stand apart in the source; their conditions may differ.
Columns and labels:
MEC1 cells [1] = experiment: Chemokine-controlled transendothelial invasion of MEC1 cells through HUVEC layer (Transwell); type: cell-based, human; settings: D4476 100 μM overnight, HUVEC-covered Transwell
Protocol: FIG. 2: Transendothelial invasiveness of the MEC1 cells was tested in the Transwell migration chamber in an arrangement where the upper chamber was covered with one layer of HUVEC endothelial cells. The rate of invasiveness (determined as the migration index) of the MEC1 cells was analyzed in the presence of the chemokine CCL19, Wnt5a, or in combination of both substances. The positive effect of CCL19 to the transendothelial migration of MEC1 was inhibited by addition of D4476 (CK1 inh. I). Statistical significance was tested using One-way ANOVA test and Tukey post-hoc test (***p<0.001). Each experiment was independently repeated three-times.
In the complex environment of the human body, cells react to the attractants and have to pass through extra-cellular matrix or endothelial barrier, which is a process known as invasion. […]
(§1) Into the upper insert of HTS Transwell® 96-well plates (Corning Incorporated, Mexico) with polycarbonate membranes with the pore size of 5.0 μm, covered with HUVEC (human umbilical vein endothelial cells monolayer), 0.5×10^6 MEC1 cells were seeded. […] The migration to chemokine was then analyzed using the Coulter Counter instrument (model FN, Coulter Electronics, Fla., USA). The migration index was calculated as the number of cells (treated or non-treated) migrating to the chemokine divided by the number of cells migrating only to the control medium.

primary CLL cells [2] = experiment: Migration of pre-treated primary CLL cells into tissues of transplanted NSG mice (FACS of calcein-positive cells); type: in vivo; settings: cells pre-treated 20 hours with 100 μM D4476; intraperitoneal injection; tissues analysed after 24 hours; vs DMSO
Protocol: (§2) FIG. 3: CK1 controls the migration of CLL cells in vivo. (A) Layout of the experiment: CLL cells were obtained by purification from the samples of fresh blood from patients, stimulated and stained in vitro using green calcein. They were subsequently intraperitoneally injected to NSG mice. After 24 hours the murine tissues were examined for the presence of calcein-positive CLL cells using flow-cytometry (refer to the G1 cut-out in the typical dot plot distribution). (B) The rate of apoptosis in primary CLL cells after adding DMSO/D4476 (CK1 inh. I) was determined by the analysis of membrane potential of mitochondria using flow-cytometry while using tetramethylrhodamine ethyl ester (TMRE) stained with green calcein dye. […] The charts show the ratio of the CLL cells (the quantity of positive cells/total quantity of cells in the organ) treated by DMSO or D4476 (CK1 inh. I) that were obtained from the spleen (Ci), liver (Cii), and bone marrow (Ciii) of transplanted mice. […]
(§3) Freshly isolated human CLL lymphocytes (25×10^6 from the patient) were pre-treated for 20 hours with a CK1 inhibitor (100 μM, D4476, Calbiochem), and dimethylsulfoxide (DMSO, Sigma-Aldrich) as control. […] Samples of spleen, liver, and femoral bone marrow of mice were taken 24 hours after the injection and analyzed. Migration of calcein-positive CLL cells to these tissues was determined by FACS analysis (FACScalibur).

primary CLL cells [3] = experiment: Rate of apoptosis of primary CLL cells by mitochondrial membrane potential (TMRE/calcein flow cytometry); type: cell-based, human; settings: 100 μM D4476, 20 hours pre-treatment; TMRE and calcein staining; vs DMSO
Protocol: as §2
as §3, with “(FACScalibur). […]” for “(FACScalibur).”

MEC1 cells [4] = experiment: Transwell migration of MEC1 cells to chemokines CCL19 and CCL21; type: cell-based, human; settings: D4476 100 μM overnight; CCL19 and CCL21 200 ng/ml; vs DMSO control
Protocol: FIG. 1: Migration of MEC1 cells which represents an in-vitro CLL model was investigated in the presence of chemokines CCL19 and CCL21 (200 ng/ml) using Transwell migration chamber. The rate of migration is expressed as a migration index. The MEC1 migration triggered by the chemokines CCL21 and CCL19 is blocked by CK1 inhibitors—D4476 (CK1 inh. I; 100 μM) and PF670462 (CK1 inh. II; 50 μM). The values in the FIGS. 1A and 1B represent the average and the standard error. Statistical significance was tested using One-way ANOVA and Tukey post-hoc test (*p<0.05, **p<0.01, ***p<0.001).
In this example, the MEC1 cell line was used, which is a well-defined cell line obtained from a CLL patient in a pro-lymphocytic transformation. The MEC1 line is used as a transplantation model of CLL. […]
as §1, with “μm,” for “μm, covered with HUVEC (human umbilical vein endothelial cells monolayer),”

NC(=O)c1ccc(-c2nc(-c3ccc4c(c3)OCCO4)c(-c3ccccn3)[nH]2)cc1 [D4476]
CCL19-induced transendothelial migration (invasiveness, migration index) of MEC1 cells (MEC1 cells [1]): inhibited
migration of CLL cells to the spleen, liver and bone marrow (primary CLL cells [2]): reduced
rate of apoptosis in primary CLL cells (primary CLL cells [3]): does not alter the rate of apoptosis; also recorded: without an increase of cell apoptosis being detected
MEC1 migration (migration index) triggered by the chemokines CCL21 and CCL19 (MEC1 cells [4]): blocked

— patent US20150209354A1, “CASEIN KINASE 1 INHIBITORS FOR THE TREATMENT OF B-CELL CHRONIC LYMPHOCYTIC|LEUKEMIA” (MASARYKOVA UNIVERZITA, priority 2012, published 2015)
